Laboratory results reported in ChEMBL document CHEMBL4665854, “Backbone Cyclization Turns a Venom Peptide into a Stable and Equipotent Ligand at Both Muscle and Neuronal Nicotinic Receptors” (J Med Chem, 2020).
Calls of active or inactive are those of the source. The rule behind the calls is not given here. Positions of bridges follow the written chain, without caps; N, C: chain ends. Residues, ends and D or L forms follow the SMILES beside them.

How the values were obtained:
[1] = test system: Phrenic nerve-diaphragm muscle; test: Reduction in fading of train-of four repetitive stimulation pattern in Swiss mouse isolated phrenic nerve hemidiaphragm muscle preparation at 20 nM; assay type: functional, tissue-based
[2] = test system: Danio rerio; test: Induction of paralysis in adult Zebrafish assessed as induction of rapid flaccid skeletal muscle paralysis dosed via injection measured after 10 mins; assay type: functional, organism-based
[3] = target: CHRNA1/CHRNB1/CHRNG/CHRND (Rattus norvegicus, UniProt P18916+P25108+P25109+P25110); test: Inhibition of rat (alpha1)2betagammadelta expressed in Xenopus laevis oocytes assessed as inhibition of acetylcholine-induced channel current response at -70 mV holding potential by two-electrode voltage-clamp assay; assay type: cell-based, Oocyte
Chain of CHRNA1/CHRNB1/CHRNG/CHRND (P25109 whole entry): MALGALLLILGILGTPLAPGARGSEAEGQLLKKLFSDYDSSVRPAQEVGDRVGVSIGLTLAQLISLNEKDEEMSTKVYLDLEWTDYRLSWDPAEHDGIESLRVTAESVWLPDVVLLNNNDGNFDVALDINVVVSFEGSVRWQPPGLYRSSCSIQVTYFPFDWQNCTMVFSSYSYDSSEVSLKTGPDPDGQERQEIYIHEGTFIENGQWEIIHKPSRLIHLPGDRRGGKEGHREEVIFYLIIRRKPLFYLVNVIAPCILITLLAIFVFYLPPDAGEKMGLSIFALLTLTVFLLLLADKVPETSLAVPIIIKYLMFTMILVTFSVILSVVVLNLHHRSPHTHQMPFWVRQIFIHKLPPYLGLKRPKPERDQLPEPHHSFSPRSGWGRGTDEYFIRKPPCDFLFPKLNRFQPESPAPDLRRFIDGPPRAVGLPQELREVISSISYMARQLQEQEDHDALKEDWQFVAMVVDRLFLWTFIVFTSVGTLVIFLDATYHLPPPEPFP
Chain of CHRNA1/CHRNB1/CHRNG/CHRND (P25108 whole entry): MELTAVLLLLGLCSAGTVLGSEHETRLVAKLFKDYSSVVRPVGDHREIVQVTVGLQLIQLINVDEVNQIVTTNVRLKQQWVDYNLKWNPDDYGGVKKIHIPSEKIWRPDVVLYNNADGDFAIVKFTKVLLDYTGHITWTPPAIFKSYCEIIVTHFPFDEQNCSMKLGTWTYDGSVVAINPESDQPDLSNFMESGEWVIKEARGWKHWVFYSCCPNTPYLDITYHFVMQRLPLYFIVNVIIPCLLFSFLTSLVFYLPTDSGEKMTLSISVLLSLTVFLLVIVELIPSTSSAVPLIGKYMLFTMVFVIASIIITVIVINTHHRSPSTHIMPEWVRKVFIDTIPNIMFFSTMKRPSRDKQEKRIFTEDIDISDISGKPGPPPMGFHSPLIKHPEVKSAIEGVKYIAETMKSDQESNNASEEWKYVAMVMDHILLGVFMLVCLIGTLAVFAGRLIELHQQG
Chain of CHRNA1/CHRNB1/CHRNG/CHRND (P25110 whole entry): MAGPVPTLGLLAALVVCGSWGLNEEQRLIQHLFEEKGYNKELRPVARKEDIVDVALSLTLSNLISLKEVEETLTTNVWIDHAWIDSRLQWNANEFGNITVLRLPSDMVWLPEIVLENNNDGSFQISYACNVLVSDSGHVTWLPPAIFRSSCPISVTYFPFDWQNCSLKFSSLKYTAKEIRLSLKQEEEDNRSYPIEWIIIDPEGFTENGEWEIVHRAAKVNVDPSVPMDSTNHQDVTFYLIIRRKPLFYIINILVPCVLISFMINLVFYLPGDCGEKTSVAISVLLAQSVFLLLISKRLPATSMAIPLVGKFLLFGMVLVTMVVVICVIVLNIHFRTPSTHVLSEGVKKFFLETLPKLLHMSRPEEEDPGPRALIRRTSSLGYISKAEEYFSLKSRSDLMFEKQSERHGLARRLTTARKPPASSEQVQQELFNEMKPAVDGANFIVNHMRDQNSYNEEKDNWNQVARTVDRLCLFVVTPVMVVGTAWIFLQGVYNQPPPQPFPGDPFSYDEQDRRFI
Chain of CHRNA1/CHRNB1/CHRNG/CHRND (P18916 whole entry): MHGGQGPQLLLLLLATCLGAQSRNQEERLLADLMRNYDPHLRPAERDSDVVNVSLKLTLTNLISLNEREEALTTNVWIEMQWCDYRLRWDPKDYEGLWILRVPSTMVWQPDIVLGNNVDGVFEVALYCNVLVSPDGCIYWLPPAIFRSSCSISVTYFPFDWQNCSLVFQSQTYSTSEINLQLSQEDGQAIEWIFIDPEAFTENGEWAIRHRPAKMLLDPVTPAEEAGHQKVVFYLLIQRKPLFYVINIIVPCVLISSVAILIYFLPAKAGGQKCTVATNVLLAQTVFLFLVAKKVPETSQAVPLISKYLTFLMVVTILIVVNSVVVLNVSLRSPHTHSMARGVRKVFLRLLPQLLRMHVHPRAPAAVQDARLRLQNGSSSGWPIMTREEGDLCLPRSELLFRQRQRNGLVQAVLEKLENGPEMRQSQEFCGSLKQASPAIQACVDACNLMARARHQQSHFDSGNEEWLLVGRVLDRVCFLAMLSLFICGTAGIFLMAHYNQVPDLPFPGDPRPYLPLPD

[4] = test system: Phrenic nerve-diaphragm muscle; test: Inhibition of muscle contraction in Swiss mouse isolated phrenic nerve hemidiaphragm muscle preparation assessed as reduction of 0.1 Hz stimulation-induced isometric twitch force incubated for 20 to 25 mins; assay type: functional, tissue-based
[5] = species on record: Danio rerio; test: Induction of paralysis in Zebrafish assessed as inhibition of larvae movement movement at 100 uM added into the water and measured over 1 hr by larvae movement tracking analysis relative to control; assay type: functional
[6] = target: T1, CHRNA1/CHRNB1/CHRNG/CHRND (Rattus norvegicus) (UniProt P25109+P25108+P25110+P18916); test: Inhibition of rat (alpha1)2betagammadelta expressed in Xenopus laevis oocytes assessed as dissociation rate constant for inhibition of acetylcholine-induced channel current response at -70 mV holding potential by two-electrode voltage-clamp assay; assay type: cell-based; settings: Oocyte
[7] = Half life in human serum at 30 uM by LC-MS analysis; assay type: ADME, cell-free
[8] = target: Neuronal acetylcholine receptor; alpha3/beta2 (Rattus norvegicus, UniProt P04757+P12390); test: Inhibition of rat alpha3beta2 expressed in Xenopus laevis oocytes assessed as inhibition of acetylcholine-induced channel current response at -70 mV holding potential by two-electrode voltage-clamp assay; assay type: cell-based, Oocyte
Chain of Neuronal acetylcholine receptor; alpha3/beta2 (P04757 whole entry): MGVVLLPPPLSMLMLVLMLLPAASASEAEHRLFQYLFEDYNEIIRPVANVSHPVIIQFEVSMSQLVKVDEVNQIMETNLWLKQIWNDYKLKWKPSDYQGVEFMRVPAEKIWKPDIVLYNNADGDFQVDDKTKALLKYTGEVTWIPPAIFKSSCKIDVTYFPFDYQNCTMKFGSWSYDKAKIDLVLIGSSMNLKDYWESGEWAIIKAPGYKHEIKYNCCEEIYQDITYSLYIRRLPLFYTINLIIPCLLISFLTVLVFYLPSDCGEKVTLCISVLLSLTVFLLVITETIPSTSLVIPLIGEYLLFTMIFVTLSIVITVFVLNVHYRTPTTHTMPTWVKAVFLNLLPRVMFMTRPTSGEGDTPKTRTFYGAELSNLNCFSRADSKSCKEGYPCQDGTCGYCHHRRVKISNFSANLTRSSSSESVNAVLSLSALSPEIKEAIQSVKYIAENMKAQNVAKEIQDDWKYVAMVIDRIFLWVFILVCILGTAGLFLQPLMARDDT
Chain of Neuronal acetylcholine receptor; alpha3/beta2 (P12390 whole entry): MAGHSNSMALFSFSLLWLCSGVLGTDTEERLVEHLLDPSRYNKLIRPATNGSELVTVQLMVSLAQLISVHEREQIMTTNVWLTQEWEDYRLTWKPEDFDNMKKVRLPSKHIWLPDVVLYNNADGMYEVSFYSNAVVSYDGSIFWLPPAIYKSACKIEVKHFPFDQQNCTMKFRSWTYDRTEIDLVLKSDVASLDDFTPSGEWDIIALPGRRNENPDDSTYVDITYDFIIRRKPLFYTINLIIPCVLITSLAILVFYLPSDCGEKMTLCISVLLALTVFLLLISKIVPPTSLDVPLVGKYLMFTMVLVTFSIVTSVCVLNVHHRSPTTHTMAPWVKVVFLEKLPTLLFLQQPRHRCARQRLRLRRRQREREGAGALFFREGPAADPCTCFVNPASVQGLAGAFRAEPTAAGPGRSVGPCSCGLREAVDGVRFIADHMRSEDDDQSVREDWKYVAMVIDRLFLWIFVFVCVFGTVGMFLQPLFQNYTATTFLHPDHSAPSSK

[9] = target: Neuronal acetylcholine receptor; alpha4/beta4 (Rattus norvegicus) (UniProt P09483+P12392); test: Inhibition of rat alpha4beta4 expressed in Xenopus laevis oocytes assessed as acetylcholine-induced channel current response at 10 uM at -70 mV holding potential by two-electrode voltage-clamp assay relative to control; assay type: cell-based; parameters: scale not given: the % may be the effect or the level left; settings: Oocyte
[10] = target: Neuronal acetylcholine receptor; alpha9/alpha10 (Homo sapiens) (UniProt Q9UGM1+Q9GZZ6); test: Inhibition of human alpha9alpha10 expressed in Xenopus laevis oocytes assessed as acetylcholine-induced channel current response at 10 uM at -70 mV holding potential by two-electrode voltage-clamp assay relative to control; assay type: cell-based; parameters: scale not given: the % may be the effect or the level left; settings: Oocyte
[11] = target: Neuronal acetylcholine receptor; alpha2/beta4 (Rattus norvegicus) (UniProt P12389+P12392); test: Inhibition of rat alpha2beta4 expressed in Xenopus laevis oocytes assessed as acetylcholine-induced channel current response at 10 uM at -70 mV holding potential by two-electrode voltage-clamp assay relative to control; assay type: cell-based; parameters: scale not given: the % may be the effect or the level left; settings: Oocyte
[12] = target: T1, CHRNA1/CHRNB1/CHRNG/CHRND (Rattus norvegicus); test: Inhibition of fetal rat (alpha1)2beta1gammadelta expressed in Xenopus laevis oocytes assessed as dissociation rate constant for inhibition of acetylcholine-induced channel current response at 100 nM at -70 mV holding potential by two-electrode voltage-clamp assay; assay type: cell-based; settings: Oocyte
[13] = test system: Phrenic nerve-diaphragm muscle; test: Inhibition of muscle contraction in Swiss mouse isolated phrenic nerve hemidiaphragm muscle preparation assessed as reduction of 0.1 Hz stimulation-induced isometric twitch force by measuring time required for 40% recovery of nerve-evoked muscle contraction; assay type: functional
[14] = test system: Phrenic nerve-diaphragm muscle; test: Inhibition of muscle contraction in Swiss mouse isolated phrenic nerve hemidiaphragm muscle preparation assessed as reduction of twitch tension-time integrals of 0.1 Hz stimulation-induced nerve contraction at 16 nM incubated for 30 mins followed addition of 10 uM addition of 3,4-DAP for 27 mins by relative to control; assay type: functional, tissue-based; settings: time 57.0 min
[15] = target: Neuronal acetylcholine receptor subunit alpha-7 (Homo sapiens) (UniProt P36544); test: Inhibition of human alpha7expressed in Xenopus laevis oocytes assessed as acetylcholine-induced channel current response at 10 uM at -70 mV holding potential by two-electrode voltage-clamp assay relative to control; assay type: cell-based; parameters: scale not given: the % may be the effect or the level left; settings: Oocyte
Chain of Neuronal acetylcholine receptor subunit alpha-7 (Homo sapiens) (P36544 whole entry): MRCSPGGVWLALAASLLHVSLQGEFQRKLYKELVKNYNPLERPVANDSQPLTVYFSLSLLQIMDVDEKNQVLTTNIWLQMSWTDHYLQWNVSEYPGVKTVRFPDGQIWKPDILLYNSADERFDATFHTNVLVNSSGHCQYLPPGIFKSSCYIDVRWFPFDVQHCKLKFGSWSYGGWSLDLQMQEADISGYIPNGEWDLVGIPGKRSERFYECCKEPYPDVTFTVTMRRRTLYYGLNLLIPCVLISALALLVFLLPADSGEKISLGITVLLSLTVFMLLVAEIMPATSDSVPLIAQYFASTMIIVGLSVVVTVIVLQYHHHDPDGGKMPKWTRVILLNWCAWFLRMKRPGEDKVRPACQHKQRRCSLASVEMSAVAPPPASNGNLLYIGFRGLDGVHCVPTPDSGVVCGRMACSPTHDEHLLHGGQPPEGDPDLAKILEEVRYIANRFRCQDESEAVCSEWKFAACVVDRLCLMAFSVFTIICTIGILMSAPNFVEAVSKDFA

[16] = test system: Phrenic nerve-diaphragm muscle; test: Inhibition of muscle contraction in Swiss mouse isolated phrenic nerve hemidiaphragm muscle preparation assessed as reduction of peak amplitude of 0.1 Hz stimulation-induced nerve contraction at 16 nM incubated for 30 mins relative to control; assay type: functional; settings: 0.5 h
[17] = test system: Phrenic nerve-diaphragm muscle; test: Induction of fading of train-of four repetitive stimulation pattern in Swiss mouse isolated phrenic nerve hemidiaphragm muscle preparation measured at 76% neuromuscular block; assay type: functional, tissue-based
[18] = target: Neuronal acetylcholine receptor; alpha2/beta2 (Rattus norvegicus) (UniProt P12389+P12390); test: Inhibition of rat alpha2beta2 expressed in Xenopus laevis oocytes assessed as acetylcholine-induced channel current response at 10 uM at -70 mV holding potential by two-electrode voltage-clamp assay relative to control; assay type: cell-based; parameters: scale not given: the % may be the effect or the level left; settings: Oocyte
[19] = test system: Phrenic nerve-diaphragm muscle; test: Inhibition of muscle contraction in Swiss mouse isolated phrenic nerve hemidiaphragm muscle preparation assessed as reduction of 0.1 Hz stimulation-induced isometric twitch force by measuring time required to block 50% of nerve-evoked muscle contraction; assay type: functional
[20] = target: Neuronal acetylcholine receptor; alpha3/beta4 (Rattus norvegicus) (UniProt P04757+P12392); test: Inhibition of rat alpha3beta4 expressed in Xenopus laevis oocytes assessed as acetylcholine-induced channel current response at 10 uM at -70 mV holding potential by two-electrode voltage-clamp assay relative to control; assay type: cell-based; parameters: scale not given: the % may be the effect or the level left; settings: Oocyte
[21] = target: Nicotinic acetylcholine receptor alpha-1/beta-1/delta/epsilon (Rattus norvegicus, UniProt P09660+P25108+P25109+P25110); test: Inhibition of rat alpha1beta1epsilondelta expressed in Xenopus laevis oocytes assessed as inhibition of acetylcholine-induced channel current response at -70 mV holding potential by two-electrode voltage-clamp assay relative to control; assay type: cell-based, Oocyte
[22] = target: Neuronal acetylcholine receptor; alpha4/beta2 (Rattus norvegicus) (UniProt P09483+P12390); test: Inhibition of rat alpha4beta2 expressed in Xenopus laevis oocytes assessed as acetylcholine-induced channel current response at 10 uM at -70 mV holding potential by two-electrode voltage-clamp assay relative to control; assay type: cell-based; parameters: scale not given: the % may be the effect or the level left; settings: Oocyte
[23] = target: T2, Neuronal acetylcholine receptor; alpha3/beta2 (Rattus norvegicus) (UniProt P04757+P12390); test: Inhibition of rat alpha3beta2 expressed in Xenopus laevis oocytes assessed as wash-out time needed for recovery of ACh-induced current responses at -70 mV holding potential by two-electrode voltage-clamp assay; assay type: cell-based; settings: Oocyte
[24] = test system: Phrenic nerve-diaphragm muscle; test: Inhibition of muscle contraction in Swiss mouse isolated phrenic nerve hemidiaphragm muscle preparation assessed as reduction of peak amplitude of 0.1 Hz stimulation-induced nerve contraction at 16 nM incubated for 30 mins followed addition of 10 uM addition of 3,4-DAP for 27 mins by relative to control; assay type: functional, tissue-based; settings: time 57.0 min
[25] = target: Nicotinic acetylcholine receptor alpha6/alpha3/beta2/beta3 (Rattus norvegicus, UniProt P04757+P12390+P12391+P43143); test: Inhibition of rat alpha6alpha3beta2beta3 expressed in Xenopus laevis oocytes assessed as inhibition of acetylcholine-induced channel current response at -70 mV holding potential by two-electrode voltage-clamp assay relative to control; assay type: cell-based, Oocyte
Chain of Nicotinic acetylcholine receptor alpha6/alpha3/beta2/beta3 (P04757 whole entry): as the sequence (P04757 whole entry) above
Chain of Nicotinic acetylcholine receptor alpha6/alpha3/beta2/beta3 (P12390 whole entry): as the sequence (P12390 whole entry) above
Chain of Nicotinic acetylcholine receptor alpha6/alpha3/beta2/beta3 (P12391 whole entry): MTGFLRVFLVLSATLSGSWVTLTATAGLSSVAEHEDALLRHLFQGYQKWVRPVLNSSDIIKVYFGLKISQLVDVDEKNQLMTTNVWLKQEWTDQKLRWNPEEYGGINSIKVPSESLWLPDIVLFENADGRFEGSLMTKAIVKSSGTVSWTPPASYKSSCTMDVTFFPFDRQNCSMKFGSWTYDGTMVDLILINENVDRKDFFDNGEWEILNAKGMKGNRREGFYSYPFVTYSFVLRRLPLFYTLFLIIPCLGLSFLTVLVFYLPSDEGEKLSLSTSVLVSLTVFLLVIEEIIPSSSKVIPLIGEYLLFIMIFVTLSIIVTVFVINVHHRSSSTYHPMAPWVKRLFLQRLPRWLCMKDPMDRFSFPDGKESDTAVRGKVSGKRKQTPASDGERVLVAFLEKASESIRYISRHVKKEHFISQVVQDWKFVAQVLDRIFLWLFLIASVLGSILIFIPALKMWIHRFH
Chain of Nicotinic acetylcholine receptor alpha6/alpha3/beta2/beta3 (P43143 whole entry): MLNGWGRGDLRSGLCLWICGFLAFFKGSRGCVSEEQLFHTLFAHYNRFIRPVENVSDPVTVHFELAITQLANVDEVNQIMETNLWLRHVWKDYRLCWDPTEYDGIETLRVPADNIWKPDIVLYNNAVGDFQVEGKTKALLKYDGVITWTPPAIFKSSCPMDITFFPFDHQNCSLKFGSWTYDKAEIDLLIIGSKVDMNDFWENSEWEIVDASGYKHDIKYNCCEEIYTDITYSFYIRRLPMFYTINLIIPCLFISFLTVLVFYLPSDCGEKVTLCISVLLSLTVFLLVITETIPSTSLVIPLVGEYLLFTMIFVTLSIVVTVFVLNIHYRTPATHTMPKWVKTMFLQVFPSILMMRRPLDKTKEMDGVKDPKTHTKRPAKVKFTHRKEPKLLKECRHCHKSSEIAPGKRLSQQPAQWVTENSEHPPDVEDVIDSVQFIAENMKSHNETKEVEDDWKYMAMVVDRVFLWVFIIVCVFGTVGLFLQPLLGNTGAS

[26] = target: T2, Neuronal acetylcholine receptor; alpha3/beta2 (Rattus norvegicus); test: Competitive inhibition of alpha-conotoxin MII binding to rat alpha3beta2 expressed in Xenopus laevis oocytes at 100 nM; assay type: cell-based; settings: Oocyte
[27] = target: Nicotinic acetylcholine receptor alpha-1/beta-1/delta/epsilon (Homo sapiens) (UniProt P02708+P11230+Q07001+Q04844); test: Inhibition of adult human (alpha1)2beta1epsilondelta expressed in Xenopus laevis oocytes assessed as dissociation rate constant for inhibition of acetylcholine-induced channel current response at 1 nM at -70 mV holding potential by two-electrode voltage-clamp assay relative to control; assay type: cell-based; settings: Oocyte
[28] = Mus musculus, Swiss, Phrenic nerve-diaphragm muscle

C[C@@H]1NC(=O)CNC(=O)[C@@H]2CSSC[C@@H]3NC(=O)[C@H](CSSC[C@H](NC(=O)[C@H](C)NC(=O)[C@@H]4CCCN4C(=O)[C@H](Cc4c[nH]cn4)NC3=O)C(=O)NCC(=O)N[C@@H](CCCCN)C(=O)N[C@@H](Cc3c[nH]cn3)C(=O)N[C@@H](Cc3ccccc3)C(=O)N[C@@H](CO)C(=O)N2)NC(=O)[C@H](CCCNC(=N)N)NC(=O)CNC(=O)[C@H](CC(N)=O)NC(=O)CNC(=O)[C@H](C)NC1=O (cyclo(AAGNGRCCHPACGKHFSCG); disulfide 7-12, 8-18)
Activity [1]: inactive | Activity [2]: Dose-dependent effect | IC50 ([2]; Danio rerio, 10 min): 76200 nM | IC50 [3]: 8.64 nM | IC50 [4, 28]: 16.5 nM | inhibition in vivo at 100 µM [5]: 25.2% | K [6]: 0.066 min⁻¹ | half-life at 30 µM [7]: > 8 h | IC50 [8]: 21.3 nM

C[C@@H]1NC(=O)[C@@H]2CCCN2C(=O)[C@H](Cc2c[nH]cn2)NC(=O)[C@@H]2CSSC[C@@H](C(N)=O)NC(=O)[C@H](CO)NC(=O)[C@H](Cc3ccccc3)NC(=O)[C@H](Cc3c[nH]cn3)NC(=O)[C@H](CCCCN)NC(=O)CNC(=O)[C@H](CSSC[C@H](NC(=O)[C@H](CCCNC(=N)N)NC(=O)CNC(=O)[C@@H](N)CC(N)=O)C(=O)N2)NC1=O (H-NGRCCHPACGKHFSC-NH2; disulfide 4-9, 5-15)
Activity [1]: inactive | Activity [2]: Dose-dependent effect | IC50 [2]: 6900 nM | IC50 [4]: 8.98 nM | half-life at 30 µM [7]: 1.33 h

C[C@@H]1NC(=O)[C@H](C)NC(=O)[C@@H]2CSSC[C@@H]3NC(=O)[C@H](CSSC[C@H](NC(=O)[C@H](C)NC(=O)[C@@H]4CCCN4C(=O)[C@H](Cc4c[nH]cn4)NC3=O)C(=O)NCC(=O)N[C@@H](CCCCN)C(=O)N[C@@H](Cc3c[nH]cn3)C(=O)N[C@@H](Cc3ccccc3)C(=O)N[C@@H](CO)C(=O)N2)NC(=O)[C@H](CCCNC(=N)N)NC(=O)CNC(=O)[C@H](CC(N)=O)NC(=O)CNC1=O (cyclo(AAGNGRCCHPACGKHFSC); disulfide 7-12, 8-18)
Activity [9]: > 80% | Activity [1]: inactive | Activity [10]: > 80% | Activity [11]: > 80% | K [12]: 0.03 min⁻¹ | Time [13]: 32.6 min | Activity [2]: Dose-dependent effect | IC50 ([2]; Danio rerio, 10 min): 57900 nM | IC50 [3]: 3.57 nM | inhibition [14]: inactive | Activity [15]: 65% | IC50 [4, 28]: 8.7 nM | inhibition in vivo at 100 µM [5]: 20.5% | inhibition at 0.016 µM [16]: 85% | Activity [17]: inactive | Activity [18]: > 80% | Time [19]: 19 min | Activity [20]: > 80% | IC50 [21]: 0.184 nM | Activity [22]: > 80% | TIME [23]: 0.5 h | inhibition [24]: inactive | IC50 [25]: 8.64 nM | inhibition [26]: Active | K [6]: 0.03 min⁻¹ | K [27]: 0.013 min⁻¹ | half-life at 30 µM [7]: 5.33 h | IC50 [8]: 1.3 nM

C[C@@H]1NC(=O)[C@@H]2CSSC[C@@H]3NC(=O)[C@H](CSSC[C@H](NC(=O)[C@H](C)NC(=O)[C@@H]4CCCN4C(=O)[C@H](Cc4c[nH]cn4)NC3=O)C(=O)NCC(=O)N[C@@H](CCCCN)C(=O)N[C@@H](Cc3c[nH]cn3)C(=O)N[C@@H](Cc3ccccc3)C(=O)N[C@@H](CO)C(=O)N2)NC(=O)[C@H](CCCNC(=N)N)NC(=O)CNC(=O)[C@H](CC(N)=O)NC(=O)CNC1=O (cyclo(ACGKHFSCAGNGRCCHP); disulfide 2-14, 8-15)
Activity [1]: inactive | Activity [2]: Dose-dependent effect | IC50 ([2]; Danio rerio, 10 min): 12100 nM | IC50 [3]: 7.54 nM | IC50 [4, 28]: 13.5 nM | inhibition in vivo at 100 µM [5]: 99.8% | K [6]: 0.126 min⁻¹ | half-life at 30 µM [7]: 7.33 h | IC50 [8]: 10.3 nM
